Structures can show the parent of a compound that is named as a salt.
System: LNCaP cells expressing ARR2PB-FireflyLuc and CMV-RenillaLuc
Assay: LNCaP ARR2PB-FireflyLuc reporter assay, antagonist mode;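 further: IC50 bins in nM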
Type: cell-based
Conditions: Homo sapiens, LNCaP, 48 h, +0.5 nM DHT, 48 h at 37° C., read-out: LNCap Antagonist Archive: IC50
Method: LNCaP cells expressing ARR2PB-FireflyLuc and CMV-RenillaLuc were treated with indicated concentrations of test compounds, enzalutamide (negative control), or DHT (positive control)+/−0.5 nM DHT for 48 h at 37° C. Fluorescent signals were read with the ImageXpress Micro Confocal System. Remaining activity (antagonist mode) was calculated as % Remaining Activity=100×[(ReadSample−LCave)/(HCave−LCave)] where HC is cells treated with 0.5 nM DHT only and LC is cells treated with 10 uM enzalutamide+0.5 nM DHT. Activation (agonist mode) was calculated as % Activation=100×[(ReadSample−LCave)/(HCave−LCave)] where HO is cells treated with 1 uM DHT and LC is cells treated with DMSO. Dose response curves and IC50 values were calculated using non-linear regression analysis in XLfit.
The designation “A” indicates an IC50 value of >10 μM, “B” indicates an IC50 value between 1 μM and 10 μM; “C” indicates an IC50 value between 100 nM and 1 μM; and “D” indicates an IC50 value of less than 100 nM.

Row | SMILES | IC50
1 | Cc1nc(-c2c(C(=O)N(Cc3ccco3)C(C)C)[nH]c3cc(F)ccc23)ccc1N [Example 1, 3-(5-amino-6-methylpyridin-2-yl)-6-fluoro-N-(furan-2-ylmethyl)-N-isopropyl-1H-indole-2-carboxamide] | > 10 µM
2 | CC(C)N(Cc1ncco1)C(=O)c1cc2ccc(F)cc2[nH]1 [Example 2, 6-fluoro-N-isopropyl-N-(1,3-oxazol-2-ylmethyl)-1H-indole-2-carboxamide] | > 10 µM
3 | CC(C)N(Cc1ccco1)C(=O)c1cc2cccc(C#N)c2[nH]1 [Example 3, 7-cyano-N-(furan-2-ylmethyl)-N-isopropyl-1H-indole-2-carboxamide] | 1 to 10 µM
4 | CC(C)N(CC1CCCO1)C(=O)c1cc2ccc(F)cc2[nH]1 (centres unmarked) [Example 4, 6-fluoro-N-isopropyl-N-(oxolan-2-ylmethyl)-1H-indole-2-carboxamide] | > 10 µM
5 | CC(C)N(Cc1ccon1)C(=O)c1cc2ccc(F)cc2[nH]1 [Example 5, 6-fluoro-N-isopropyl-N-(1,2-oxazol-3-ylmethyl)-1H-indole-2-carboxamide] | 1 to 10 µM
6 | CC(C)N(Cc1cnco1)C(=O)c1cc2ccc(F)cc2[nH]1 [Example 6, 6-fluoro-N-isopropyl-N-(1,3-oxazol-5-ylmethyl)-1H-indole-2-carboxamide] | 1 to 10 µM
7 | CC(C)N(Cc1ccccn1)C(=O)c1cc2ccc(F)cc2[nH]1 [Example 7, 6-fluoro-N-isopropyl-N-(pyridin-2-ylmethyl)-1H-indole-2-carboxamide] | > 10 µM
8 | CC(C)N(Cc1ccno1)C(=O)c1cc2ccc(F)cc2[nH]1 [Example 8, 6-fluoro-N-isopropyl-N-(1,2-oxazol-5-ylmethyl)-1H-indole-2-carboxamide] | 1 to 10 µM
9 | CC(C)N(Cc1cccnc1)C(=O)c1cc2ccc(F)cc2[nH]1 [Example 9, 6-fluoro-N-isopropyl-N-(pyridin-3-ylmethyl)-1H-indole-2-carboxamide] | 1 to 10 µM
10 | CC(C)N(Cc1ccncc1)C(=O)c1cc2ccc(F)cc2[nH]1 [Example 10, 6-fluoro-N-isopropyl-N-(pyridin-4-ylmethyl)-1H-indole-2-carboxamide] | 1 to 10 µM
11 | CC(C)N(C(=O)c1cc2ccc(F)cc2[nH]1)c1ccccc1 [Example 11, 6-fluoro-N-isopropyl-N-phenyl-1H-indole-2-carboxamide] | 0.1 to 1 µM
12 | COCCN(C(=O)c1cc2ccc(F)cc2[nH]1)c1ccccc1 [Example 12, 6-fluoro-N-(2-methoxyethyl)-N-phenyl-1H-indole-2-carboxamide] | 1 to 10 µM
13 | CN(C(=O)c1cc2ccc(F)cc2[nH]1)c1ccccn1 [Example 13, 6-fluoro-N-methyl-N-(pyridin-2-yl)-1H-indole-2-carboxamide] | 1 to 10 µM
14 | CN(C(=O)c1cc2ccc(F)cc2[nH]1)c1cccnc1 [Example 14, 6-fluoro-N-methyl-N-(pyridin-3-yl)-1H-indole-2-carboxamide] | > 10 µM
15 | CN(C(=O)c1cc2ccc(F)cc2[nH]1)c1ccncc1 [Example 15, 6-fluoro-N-methyl-N-(pyridin-4-yl)-1H-indole-2-carboxamide] | > 10 µM
16 | CN(C(=O)c1cc2ccc(F)cc2[nH]1)c1cccc(C#N)c1 [Example 16, N-(3-cyanophenyl)-6-fluoro-N-methyl-1H-indole-2-carboxamide] | > 10 µM
17 | CN(C(=O)c1cc2ccc(F)cc2[nH]1)c1ccc(C#N)cc1 [Example 17, N-(4-cyanophenyl)-6-fluoro-N-methyl-1H-indole-2-carboxamide] | 1 to 10 µM
18 | CN(C(=O)c1cc2cccc(Cl)c2[nH]1)c1ccccc1 [Example 19, 7-chloro-N-methyl-N-phenyl-1H-indole-2-carboxamide] | 0.1 to 1 µM
19 | CN(C(=O)c1cc2cccc(C#N)c2[nH]1)C1CCCC1 [Example 20, 7-cyano-N-cyclopentyl-N-methyl-1H-indole-2-carboxamide] | 1 to 10 µM
20 | CN(C(=O)c1cc2cccc(C#N)c2[nH]1)c1ccccc1 [Example 21, 7-cyano-N-methyl-N-phenyl-1H-indole-2-carboxamide] | 0.1 to 1 µM
21 | CN(C(=O)c1[nH]c2ccccc2c1Cl)c1ccccc1 [Example 22, 3-chloro-N-methyl-N-phenyl-1H-indole-2-carboxamide] | > 10 µM
22 | CN(C(=O)c1nc2ccc(F)cc2[nH]1)c1ccccc1 [Example 23, 5-fluoro-N-methyl-N-phenyl-3H-1,3-benzodiazole-2-carboxamide] | > 10 µM
23 | CN(C(=O)c1cc2ccc(F)cc2o1)c1ccccc1 [Example 24, 6-fluoro-N-methyl-N-phenyl-1-benzofuran-2-carboxamide] | 1 to 10 µM
24 | CN(C(=O)c1cc2cccc(C(F)(F)F)c2[nH]1)c1ccccc1 [Example 25, N-methyl-N-phenyl-7-(trifluoromethyl)-1H-indole-2-carboxamide] | 0.1 to 1 µM

Row | SMILES | IC50
25 | CN(C(=O)c1cc2cccc(C(F)(F)F)c2[nH]1)c1ccccn1 [Example 26, N-methyl-N-(pyridin-2-yl)-7-(trifluoromethyl)-1H-indole-2-carboxamide] | 0.1 to 1 µM
26 | CN(C(=O)c1cc2cccc(C(F)(F)F)c2[nH]1)c1ccc(C#N)cc1 [Example 27, N-(4-cyanophenyl)-N-methyl-7-(trifluoromethyl)-1H-indole-2-carboxamide] | 1 to 10 µM
27 | CN(C(=O)c1cc2cccc(Cl)c2[nH]1)c1ccccn1 [Example 28, 7-chloro-N-methyl-N-(pyridin-2-yl)-1H-indole-2-carboxamide] | 1 to 10 µM
28 | CN(C)C(=O)c1cc2cccc(Cl)c2[nH]1 [Example 29, 7-chloro-N,N-dimethyl-1H-indole-2-carboxamide] | 1 to 10 µM
29 | CN(C(=O)c1cc2cccc(Cl)c2[nH]1)C1CCCC1 [Example 30, 7-chloro-N-cyclopentyl-N-methyl-1H-indole-2-carboxamide] | 0.1 to 1 µM
30 | CN(C(=O)c1cc2cccc(Cl)c2[nH]1)C1CCOC1 (centres unmarked) [Example 31, 7-chloro-N-methyl-N-(oxolan-3-yl)-1H-indole-2-carboxamide] | 0.1 to 1 µM
31 | CN(CC1CC1)C(=O)c1cc2cccc(Cl)c2[nH]1 [Example 32, 7-chloro-N-(cyclopropylmethyl)-N-methyl-1H-indole-2-carboxamide] | 1 to 10 µM
32 | CN(C(=O)c1cc2cccc(Cl)c2[nH]1)c1ccc(C#N)cc1 [Example 33, 7-chloro-N-(4-cyanophenyl)-N-methyl-1H-indole-2-carboxamide] | 1 to 10 µM
33 | CN(C(=O)c1cc2cccc(C#N)c2o1)c1ccc(F)cc1 [Example 34, 7-cyano-N-(4-fluorophenyl)-N-methyl-1-benzofuran-2-carboxamide] | > 10 µM
34 | CN(C(=O)c1cc2cccc(Cl)c2o1)c1ccc(F)cc1 [Example 35, 7-chloro-N-(4-fluorophenyl)-N-methyl-1-benzofuran-2-carboxamide] | 1 to 10 µM
35 | CN(C(=O)c1cc2cccc(C(F)(F)F)c2o1)c1ccc(F)cc1 [Example 36, N-(4-fluorophenyl)-N-methyl-7-(trifluoromethyl)benzofuran-2-carboxamide] | 1 to 10 µM
36 | CN(C(=O)c1cc2cccc(Cl)c2o1)c1ccccn1 [Example 37, 7-chloro-N-methyl-N-(pyridin-2-yl)-1-benzofuran-2-carboxamide] | > 10 µM
37 | CN(C(=O)c1cc2ccc(F)cc2o1)c1ccccn1 [Example 38, 6-fluoro-N-methyl-N-(pyridin-2-yl)-1-benzofuran-2-carboxamide] | > 10 µM
38 | CN(C(=O)c1cc2ccc(F)cc2o1)c1ccc(F)cc1 [Example 39, 6-fluoro-N-(4-fluorophenyl)-N-methyl-1-benzofuran-2-carboxamide] | 1 to 10 µM
39 | CN(C(=O)c1cc2cccc(Cl)c2[nH]1)C1CCNC1 (centres unmarked) [Example 40, 7-chloro-N-methyl-N-(pyrrolidin-3-yl)-1H-indole-2-carboxamide trifluoroacetic acid salt] | > 10 µM
40 | CC(C)N1CCC(N(C)C(=O)c2cc3cccc(Cl)c3[nH]2)C1 (centres unmarked) [Example 41, 7-chloro-N-(1-isopropylpyrrolidin-3-yl)-N-methyl-1H-indole-2-carboxamide] | > 10 µM
41 | CN(C(=O)c1cc2cccc(Cl)c2[nH]1)C1CCCNC1 (centres unmarked) [Example 42, 7-chloro-N-methyl-N-(piperidin-3-yl)-1H-indole-2-carboxamide] | > 10 µM
42 | CN(C(=O)c1cc2cccc(Cl)c2[nH]1)C1CCNCC1 [Example 43, 7-chloro-N-methyl-N-(piperidin-4-yl)-1H-indole-2-carboxamide] | > 10 µM
43 | CC(C)N1CCCC(N(C)C(=O)c2cc3cccc(Cl)c3[nH]2)C1 (centres unmarked) [Example 44, 7-chloro-N-(1-isopropylpiperidin-3-yl)-N-methyl-1H-indole-2-carboxamide] | > 10 µM
44 | CC(C)N1CCC(N(C)C(=O)c2cc3cccc(Cl)c3[nH]2)CC1 [Example 45, 7-chloro-N-(1-isopropylpiperidin-4-yl)-N-methyl-1H-indole-2-carboxamide] | > 10 µM
45 | NCCN(CC1CC1)C(=O)c1cc2cccc(Cl)c2[nH]1 [Example 47, N-(2-aminoethyl)-7-chloro-N-(cyclopropylmethyl)-1H-indole-2-carboxamide] | > 10 µM
46 | COCCN(C(=O)c1cc2ccc(F)cc2[nH]1)c1cnn(C)c1 [Example 49, 6-fluoro-N-(2-methoxyethyl)-N-(1-methylpyrazol-4-yl)-1H-indole-2-carboxamide] | > 10 µM
47 | COCCN(C(=O)c1cc2ccc(F)cc2[nH]1)c1ccc(C#N)cc1 [Example 51, N-(4-cyanophenyl)-6-fluoro-N-(2-methoxyethyl)-1H-indole-2-carboxamide] | 1 to 10 µM

Reference: patent US12012398B2, “Bicyclic compounds as androgen receptor modulators” (NIDO BIOSCIENCES, INC., priority 2021, dated 2024)
